Tests used:
Type in all cases: in vivo
[1] = system: ducksalad (Heteranthera limosa); test: Test B flooded paddy test; conditions: Heteranthera limosa, 360 h, Flood, 250 g ai/ha; visually evaluated after 13 to 15 d; read-out: Plant response rating, Ducksalad (0 to 100 scale where 0 is no effect and 100 is complete control)
Procedure, shortened: (§1)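 Percent control, visually estimated after 13–15 d in the greenhouse on a 0–100 basis, compares treated pots with untreated ones; compound was put into paddy water 3 cm above the soil when plants had two leaves.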

rice (Oryra sativa) = test: Test B flooded paddy test; conditions: Oryza sativa, 360 h, Flood, 250 g ai/ha; visually evaluated after 13 to 15 d; read-out: Plant response rating, Rice (0 to 100 scale where 0 is no effect and 100 is complete control)
Procedure, shortened: as §1

[2] = system: sedge, umbrella (small-flower umbrella sedge, Cyperus difformis); test: Test B flooded paddy test; conditions: Cyperus difformis, 360 h, Flood, 250 g ai/ha; visually evaluated after 13 to 15 d; read-out: Plant response rating, Sedge, Umbrella (0 to 100 scale where 0 is no effect and 100 is complete control)
Procedure, shortened: as §1

[3] = system: barnyardgrass (Echinochloa crus-galli); test: Test B flooded paddy test; conditions: Echinochloa crus-galli, 360 h, Flood, 250 g ai/ha; visually evaluated after 13 to 15 d; read-out: Plant response rating, Barnyardgrass (0 to 100 scale where 0 is no effect and 100 is complete control)
Procedure, shortened: as §1

[4] = system: ryegrass, Italian (Italian ryegrass, Lolium multiflorum); test: Test A preemergence; conditions: Lolium multiflorum, pre-emergence, 240 h, Preemergence
Procedure, shortened: (§2)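 Ratings of 0 (no effect) to 100 (complete control) come from visual comparison with untreated controls roughly 10 d after treatment. Test chemicals, formulated in a non-phytotoxic solvent mixture with surfactant, were applied either as a preemergence directed soil spray on seeded soil or postemergence to one- to two-leaf plants 2 to 10 cm tall.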

Kochia (Kochia scoparia) [5] = test: Test A preemergence; conditions: Bassia scoparia, pre-emergence, 240 h, Preemergence
Procedure, shortened: as §2

[6] = system: giant foxtail (Setaria faberii); test: Test A preemergence; conditions: Setaria faberi, pre-emergence, 240 h, Preemergence
Procedure, shortened: as §2

[7] = system: ragweed (common ragweed, Ambrosia elatior); test: Test A preemergence; conditions: Ambrosia artemisiifolia, pre-emergence, 240 h, Preemergence
Procedure, shortened: as §2

[8] = system: barnyardgrass (Echinochloa crus-galli); test: Test A preemergence; conditions: Echinochloa crus-galli, pre-emergence, 240 h, Preemergence
Procedure, shortened: as §2

[9] = system: pigweed (Amaranthus retroflexus); test: Test A preemergence; conditions: Amaranthus retroflexus, pre-emergence, 240 h, Preemergence
[10] = system: ryegrass, Italian (Italian ryegrass, Lolium multiflorum); test: Test A postemergence; conditions: Lolium multiflorum, post-emergence, 240 h, Postemergence, read-out: Ryegrass, Italian plant response rating (0 to 100 scale)
Procedure, shortened: as §2

Kochia (Kochia scoparia) [11] = test: Test A postemergence; conditions: Bassia scoparia, post-emergence, 240 h, Postemergence, read-out: Kochia plant response rating (0 to 100 scale)
Procedure, shortened: as §2

corn (Zea mays) = test: Test A postemergence; conditions: Zea mays, post-emergence, 240 h, Postemergence, read-out: Corn plant response rating (0 to 100 scale)
Procedure, shortened: as §2

[12] = system: giant foxtail (Setaria faberii); test: Test A postemergence; conditions: Setaria faberi, post-emergence, 240 h, Postemergence, read-out: Foxtail, Giant plant response rating (0 to 100 scale)
Procedure, shortened: as §2

[13] = system: wheat (Triticum aestivum); test: Test A postemergence; conditions: Triticum aestivum, post-emergence, 240 h, Postemergence, read-out: Wheat plant response rating (0 to 100 scale)
Procedure, shortened: as §2

[14] = system: blackgrass (Alopecurus myosuroides); test: Test A postemergence; conditions: Alopecurus myosuroides, post-emergence, 240 h, Postemergence, read-out: Blackgrass plant response rating (0 to 100 scale)
Procedure, shortened: as §2

[15] = system: ragweed (common ragweed, Ambrosia elatior); test: Test A postemergence; conditions: Ambrosia artemisiifolia, post-emergence, 240 h, Postemergence, read-out: Ragweed plant response rating (0 to 100 scale)
Procedure, shortened: as §2

[16] = system: Galium (catchweed bedstraw, Galium aparine); test: Test A postemergence; conditions: Galium, post-emergence, 240 h, Postemergence, read-out: Galium plant response rating (0 to 100 scale)
Procedure, shortened: as §2

[17] = system: barnyardgrass (Echinochloa crus-galli); test: Test A postemergence; conditions: Echinochloa crus-galli, post-emergence, 240 h, Postemergence
Procedure, shortened: as §2

[18] = system: pigweed (Amaranthus retroflexus); test: Test A postemergence; conditions: Amaranthus retroflexus, post-emergence, 240 h, Postemergence, read-out: Pigweed plant response rating (0 to 100 scale)
Procedure, shortened: as §2

[19] = 125 g ai/ha, visual rating about 10 d after treatment
[20] = 31 g ai/ha, 0 is no effect, 100 is complete control

Work on `Cc1ccc([C@H]2CN(C)C(=O)[C@@H]2C(=O)Nc2cccc(F)n2)cc1` [Compound 1375] yielded a pest or weed control at 250 g/ha [1] of 95%, a pest or weed control at 250 g/ha (rice (Oryra sativa)) of 0% and a pest or weed control at 250 g/ha [2] of 0%. The pest or weed control at 250 g/ha [3] was 70%, the pest or weed control at 31 g/ha ([4]; 31 g ai/ha, 0 to 100 scale where 0 is no effect and 100 is complete control, read-out: Ryegrass, Italian plant response rating) was 0% and the pest or weed control at 125 g/ha ([4]; 125 g ai/ha, 0 to 100 scale (0 no effect, 100 complete control), read-out: Plant response rating, Ryegrass, Italian) was 70%. For the same molecule, the pest or weed control at 31 g/ha (Kochia (Kochia scoparia) [5]; 31 g ai/ha, 0 to 100 scale where 0 is no effect and 100 is complete control, read-out: Kochia plant response rating) was 50%, the pest or weed control at 125 g/ha (Kochia (Kochia scoparia) [5]; 125 g ai/ha, 0 to 100 scale (0 no effect, 100 complete control), read-out: Plant response rating, Kochia) was 70% and the pest or weed control at 31 g/ha ([6]; 31 g ai/ha, 0 to 100 scale where 0 is no effect and 100 is complete control, read-out: Foxtail, Giant plant response rating) was 90%. For the same molecule, the pest or weed control at 125 g/ha ([6]; 125 g ai/ha, 0 to 100 scale (0 no effect, 100 complete control), read-out: Plant response rating, Foxtail, Giant) was 100%, the pest or weed control at 31 g/ha ([7]; 31 g ai/ha, 0 to 100 scale where 0 is no effect and 100 is complete control, read-out: Ragweed plant response rating) was 40% and the pest or weed control at 125 g/ha ([7]; 125 g ai/ha, 0 to 100 scale (0 no effect, 100 complete control), read-out: Plant response rating, Ragweed) was 70%. It also gave a pest or weed control at 31 g/ha ([8]; 31 g ai/ha, 0 to 100 scale where 0 is no effect and 100 is complete control, read-out: Barnyardgrass plant response rating) of 90%, a pest or weed control at 125 g/ha ([8]; 125 g ai/ha, 0 to 100 scale (0 no effect, 100 complete control), read-out: Plant response rating, Barnyardgrass) of 100% and a pest or weed control at 31 g/ha ([9]; 31 g ai/ha, 0 to 100 scale where 0 is no effect and 100 is complete control, read-out: Pigweed plant response rating) of 0%. It also gave a pest or weed control at 125 g/ha ([9]; 125 g ai/ha, 0 to 100 scale (0 no effect, 100 complete control), read-out: Plant response rating, Pigweed) of 0%, a pest or weed control at 125 g/ha [10, 19] of 20% and a pest or weed control at 31 g/ha [10, 20] of 0%. It also gave a pest or weed control at 125 g/ha (Kochia (Kochia scoparia) [11]; [19]) of 50%, a pest or weed control at 31 g/ha (Kochia (Kochia scoparia) [11]; [20]) of 30% and a plant injury at 125 g/ha (corn (Zea mays); [19]) of 30%. It also gave a plant injury at 31 g/ha (corn (Zea mays); [20]) of 0%, a pest or weed control at 125 g/ha [12, 19] of 90% and a pest or weed control at 31 g/ha [12, 20] of 70%. The plant injury at 125 g/ha [13, 19] was 30%, the plant injury at 31 g/ha [13, 20] was 0% and the pest or weed control at 125 g/ha [14, 19] was 40%. It also gave a pest or weed control at 31 g/ha [14, 20] of 0%, a pest or weed control at 125 g/ha [15, 19] of 20% and a pest or weed control at 31 g/ha [15, 20] of 0%. It also gave a pest or weed control at 125 g/ha [16, 19] of 50%, a pest or weed control at 31 g/ha [16, 20] of 20% and a pest or weed control at 125 g/ha ([17]; 125 g ai/ha, visual rating about 10 d after treatment, read-out: Barnyardgrass plant response rating (0 to 100 scale, 0 no effect, 100 complete control)) of 100%. It also gave a pest or weed control at 31 g/ha ([17]; 31 g ai/ha, 0 is no effect, 100 is complete control, read-out: Barnyardgrass plant response rating (0 to 100 scale)) of 70%, a pest or weed control at 125 g/ha [18, 19] of 0% and a pest or weed control at 31 g/ha [18, 20] of 0%.

— patent US12077503B2, “Substituted cyclic amides and their use as herbicides” (FMC CORPORATION, priority 2015, dated 2024)
